Results taken from ChEMBL document CHEMBL5055633, “Amphipathic Barbiturates as Mimics of Antimicrobial Peptides and the Marine Natural Products Eusynstyelamides with Activity against Multi-resistant Clinical Isolates” (J Med Chem, 2021).
The source made the active and inactive calls. No cut-off for these calls is given here.

Legend:
[1] = tested on: Staphylococcus aureus; assay: Antimicrobial activity against extended spectrum-lactamase-carbapenemas producing Staphylococcus aureus N315 assessed as reduction in bacterial growth incubated for 48 hrs by microdilution method; type: functional
[2] = tested on: Streptococcus pneumoniae; assay: Antibacterial activity against in […] 168 assessed as decrease in bacterial viability at 6.3 ug/ml by cell viability assay; type: functional, organism-based; details: dose 6.3 µg/ml
[3] = tested on: Escherichia coli; assay: Antibacterial activity against Escherichia coli EC106-09 infected in mouse peritonitis model assessed as reduction in colony forming unit at 1.4 mg/kg, ip treatment repeated after 3 hrs relative to control; type: functional
[4] = tested on: Pseudomonas aeruginosa; assay: Antimicrobial activity against Pseudomonas aeruginosa PAO1 assessed as reduction in bacterial growth incubated for 48 hrs by microdilution susceptibility test; type: functional
[5] = tested on: Acinetobacter baumannii; assay: Antimicrobial activity against oxacillinase-23 producing Acinetobacter baumannii K44-35 assessed as reduction in bacterial growth incubated for 48 hrs by microdilution method; type: functional
[6] = tested on: Escherichia coli; assay: Membrano-lytic effect in Escherichia coli HB101 assessed as decrease in bacterial viability at 6.3 ug/ml by luciferase based real-time membrane integrity assay; type: functional, organism-based; details: dose 6.3 µg/ml
[7] = tested on: Streptococcus pneumoniae; assay: Antibacterial activity against Klebsiella pneumoniae KP3010 infected in mouse peritonitis model assessed as reduction in colony forming unit at 1.4 mg/kg, ip treatment repeated after 3 hrs relative to control; type: functional
[8] = tested on: Escherichia coli; assay: Antimicrobial activity against verona integron-encoded metallo-beta-lactamase-29-producing Escherichia coli 50639799 assessed as reduction in bacterial growth incubated for 48 hrs by microdilution method; type: functional
[9] = tested on: Enterococcus faecium; assay: Antimicrobial activity against extended spectrum-lactamase-carbapenemas producing Enterococcus faecium strain 50901530 assessed as reduction in bacterial growth incubated for 48 hrs by microdilution method; type: functional
[10] = tested on: Streptococcus pneumoniae; assay: Antibacterial activity against in […] 168 assessed as decrease in bacterial viability at 3.1 ug/ml by cell viability assay; type: functional, organism-based; details: dose 3.1 µg/ml
[11] = tested on: Staphylococcus aureus; assay: Antimicrobial activity against Staphylococcus aureus ATCC 9144 assessed as reduction in bacterial growth incubated for 48 hrs by microdilution susceptibility test; type: functional
[12] = tested on: MRC5; assay: Cytotoxicity against human MRC5 cells assessed as reduction in cell viability incubated for 24 hrs by colorimetric tetrazolium assay; type: functional, cell-based; details: MRC5, 24 h
[13] = tested on: Escherichia coli; assay: Antibacterial activity against Escherichia coli EC106-09 infected in mouse peritonitis model assessed as reduction in colony forming unit at 1.4 mg/kg, ip relative to control; type: functional
[14] = tested on: Escherichia coli; assay: Antimicrobial activity against New Delhi metallo-beta lactamase-1 producing Escherichia coli 50739822 assessed as reduction in bacterial growth incubated for 48 hrs by microdilution method; type: functional
[15] = tested on: Escherichia coli; assay: Membrano-lytic effect in Escherichia coli HB101 assessed as decrease in bacterial viability at 3.1 ug/ml by luciferase based real-time membrane integrity assay; type: functional, organism-based; details: dose 3.1 µg/ml
[16] = tested on: Pseudomonas aeruginosa; assay: Antimicrobial activity against New Delhi metallo-beta lactamase-1 producing Pseudomonas aeruginosa 50692172 assessed as reduction in bacterial growth incubated for 48 hrs by microdilution method; type: functional
[17] = tested on: Enterococcus faecium; assay: Antimicrobial activity against extended spectrum-lactamase-carbapenemas producing Enterococcus faecium strain K36-18 assessed as reduction in bacterial growth incubated for 48 hrs by microdilution method; type: functional
[18] = tested on: Staphylococcus aureus; assay: Antimicrobial activity against extended spectrum-lactamase-carbapenemas producing Staphylococcus aureus NCTC 10442 assessed as reduction in bacterial growth incubated for 48 hrs by microdilution method; type: functional
[19] = tested on: HepG2; assay: Cytotoxicity against human HepG2 cells assessed as reduction in cell viability incubated for 24 hrs by colorimetric tetrazolium assay; type: functional, cell-based; details: HepG2, 24 h
[20] = tested on: Escherichia coli; assay: Antibacterial activity against in Escherichia coli HB101 assessed as decrease in bacterial viability at 3.1 ug/ml by cell viability assay; type: functional, organism-based; details: dose 3.1 µg/ml
[21] = Antimicrobial activity against New Delhi metallo-beta lactamase-1 Klebsiella pneumoniae K66-45 assessed as reduction in bacterial growth incubated for 48 hrs by microdilution method; type: functional
[22] = tested on: Staphylococcus aureus; assay: Antimicrobial activity against extended spectrum-lactamase-carbapenemas producing Staphylococcus aureus strain IHT 99040 assessed as reduction in bacterial growth incubated for 48 hrs by microdilution method; type: functional
[23] = tested on: Corynebacterium glutamicum; assay: Antimicrobial activity against Corynebacterium glutamicum ATCC 13032 assessed as reduction in bacterial growth incubated for 48 hrs by microdilution susceptibility test; type: functional
[24] = Antimicrobial activity against carbapenemase producing Klebsiella pneumoniae K47-25 assessed as reduction in bacterial growth incubated for 48 hrs by microdilution method; type: functional
[25] = Antimicrobial activity against oxacillinase-245 producing Klebsiella pneumoniae 50625602 assessed as reduction in bacterial growth incubated for 48 hrs by microdilution method; type: functional
[26] = tested on: Acinetobacter baumannii; assay: Antimicrobial activity against oxacillinase-58 producing Acinetobacter baumannii K12-21 assessed as reduction in bacterial growth incubated for 48 hrs by microdilution method; type: functional
[27] = tested on: Acinetobacter baumannii; assay: Antimicrobial activity against oxacillinase-23 producing Acinetobacter baumannii K47-42 assessed as reduction in bacterial growth incubated for 48 hrs by microdilution method; type: functional
[28] = tested on: Escherichia coli; assay: Antimicrobial activity against New Delhi metallo-beta lactamase-1 producing Escherichia coli 50676002 assessed as reduction in bacterial growth incubated for 48 hrs by microdilution method; type: functional
[29] = tested on: Escherichia coli; assay: Antimicrobial activity against imipenem-type carbapenemase-26 producing Escherichia coli 50857972 assessed as reduction in bacterial growth incubated for 48 hrs by microdilution method; type: functional
[30] = Toxicity in ip dosed mouse assessed as maximum tolerated dose; type: organism-based; details: in vivo
[31] = tested on: Enterococcus faecium; assay: Antimicrobial activity against extended spectrum-lactamase-carbapenemas producing Enterococcus faecium strain 50673722 assessed as reduction in bacterial growth incubated for 48 hrs by microdilution method; type: functional
[32] = tested on: Mus musculus; assay: Toxicity in mouse assessed as tolerability at 2.8 to 3.6 mg/kg, ip; type: organism-based; details: in vivo, dose 2.8-3.6 mg/kg
[33] = tested on: Escherichia coli; assay: Antimicrobial activity against oxacillinase-producing Escherichia coli 50579417 assessed as reduction in bacterial growth incubated for 48 hrs by microdilution method; type: functional
[34] = tested on: Staphylococcus aureus; assay: Antimicrobial activity against extended spectrum-lactamase-carbapenemas producing Staphylococcus aureus strain 85/2082 assessed as reduction in bacterial growth incubated for 48 hrs by microdilution method; type: functional
[35] = tested on: Acinetobacter baumannii; assay: Antimicrobial activity against oxacillinase-24 producing Acinetobacter baumannii K55-13 assessed as reduction in bacterial growth incubated for 48 hrs by microdilution method; type: functional
[36] = tested on: Acinetobacter baumannii; assay: Antimicrobial activity against oxacillinase-23 producing Acinetobacter baumannii K63-58 assessed as reduction in bacterial growth incubated for 48 hrs by microdilution method; type: functional
[37] = tested on: Escherichia coli; assay: Antimicrobial activity against Escherichia coli ATCC 25922 assessed as reduction in bacterial growth incubated for 48 hrs by microdilution susceptibility test; type: functional
[38] = tested on: Staphylococcus aureus; assay: Antimicrobial activity against extended spectrum-lactamase-carbapenemas producing Staphylococcus aureus strain WIS assessed as reduction in bacterial growth incubated for 48 hrs by microdilution method; type: functional
[39] = Antimicrobial activity against New Delhi metallo-beta lactamase-1 and oxacillinase -181 producing Klebsiella pneumoniae 50531633 assessed as reduction in bacterial growth incubated for 48 hrs by microdilution method; type: functional
[40] = tested on: Pseudomonas aeruginosa; assay: Antimicrobial activity against verona integron-encoded metallo-beta-lactamase-4 producing Pseudomonas aeruginosa K34-73 assessed as reduction in bacterial growth incubated for 48 hrs by microdilution method; type: functional
[41] = tested on: Enterococcus faecium; assay: Antimicrobial activity against extended spectrum-lactamase-carbapenemas producing Enterococcus faecium strain TUH.50-22 assessed as reduction in bacterial growth incubated for 48 hrs by microdilution method; type: functional
[42] = tested on: Streptococcus pneumoniae; assay: Antibacterial activity against Klebsiella pneumoniae KP3010 infected in mouse peritonitis model assessed as reduction in colony forming unit at 1.4 mg/kg, ip relative to control; type: functional
[43] = Antimicrobial activity against verona integron-encoded metallo-beta-lactamase -1 producing Klebsiella pneumoniae 50667959 assessed as reduction in bacterial growth incubated for 48 hrs by microdilution method; type: functional
[44] = Hemolytic activity in human erythrocytes incubated for 1 hr by microplate reader; type: functional, cell-based; details: erythrocyte
[45] = tested on: Escherichia coli; assay: Antibacterial activity against Escherichia coli HB101 assessed as decrease in bacterial viability at 6.3 ug/ml by cell viability assay; type: functional, organism-based; details: dose 6.3 µg/ml
[46] = tested on: Pseudomonas aeruginosa; assay: Antimicrobial activity against verona integron-encoded metallo-beta-lactamase producing Pseudomonas aeruginosa 50692520 assessed as reduction in bacterial growth incubated for 48 hrs by microdilution method; type: functional
[47] = tested on: Pseudomonas aeruginosa; assay: Antimicrobial activity against imipenem-type carbapenemase-14 producing Pseudomonas aeruginosa K44-24 assessed as reduction in bacterial growth incubated for 48 hrs by microdilution method; type: functional
[48] = tested on: Enterococcus faecium; assay: Antimicrobial activity against extended spectrum-lactamase-carbapenemas producing Enterococcus faecium strain 50758899 assessed as reduction in bacterial growth incubated for 48 hrs by microdilution method; type: functional
[49] = tested on: Pseudomonas aeruginosa; assay: Antimicrobial activity against verona integron-encoded metallo-beta-lactamase-2 producing Pseudomonas aeruginosa K34-7 assessed as reduction in bacterial growth incubated for 48 hrs by microdilution method; type: functional

N=C(N)NCCCCN1C(=O)N(CCCCNC(=N)N)C(=O)C(Cc2cc(Br)cc(Br)c2)(Cc2cc(Br)cc(Br)c2)C1=O.O=C(O)C(F)(F)F.O=C(O)C(F)(F)F
MIC [1]: 2 µg/mL | Activity [2]: Active | inhibition in vivo at 1.4 mg/kg [3]: 97% | MIC [4]: 4 µg/mL | MIC [5]: 4 µg/mL | Activity [6]: Active | inhibition in vivo at 1.4 mg/kg [7]: 97% | MIC [8]: 4 µg/mL | MIC [9]: 2 µg/mL | Activity [10]: Active | MIC [11]: 1 µg/mL | IC50 [12]: 11 µg/mL | inhibition in vivo at 1.4 mg/kg [13]: 90% | MIC [14]: 4 µg/mL | Activity [15]: Active | MIC [16]: 8 µg/mL | MIC [17]: 4 µg/mL | MIC [18]: 2 µg/mL | IC50 [19]: 30 µg/mL | Activity [20]: Active | MIC [21]: 4 µg/mL | MIC [22]: 2 µg/mL | MIC [23]: 0.25 µg/mL | MIC [24]: 4 µg/mL | MIC [25]: 4 µg/mL | MIC [26]: 4 µg/mL | MIC [27]: 4 µg/mL | MIC [28]: 4 µg/mL | MIC [29]: 4 µg/mL | MTD [30]: 7 mg/kg | MIC [31]: 4 µg/mL | Activity [32]: Non-Toxic | MIC [33]: 4 µg/mL | MIC [34]: 2 µg/mL | MIC [35]: 8 µg/mL | MIC [36]: 4 µg/mL | MIC [37]: 2 µg/mL | MIC [38]: 2 µg/mL | MIC [39]: 4 µg/mL | MIC [40]: 8 µg/mL | MIC [41]: 2 µg/mL | inhibition in vivo at 1.4 mg/kg [42]: 98% | MIC [43]: 4 µg/mL | EC50 [44]: 62 µg/mL | Activity [45]: Active | MIC [46]: 16 µg/mL | MIC [47]: 8 µg/mL | MIC [48]: 4 µg/mL | MIC [49]: 8 µg/mL
